Counter-ions that a name gives are not always drawn.
What was measured:
[1] = tested on: HEK293 cells cotransfected with the FOP control vector; experiment: HEK293 FOP assay (control reporter with non-functional TCF elements); format: cell-based; settings: Homo sapiens, 16 hours
Outline: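 Compound series from 50 μM down to 15 nM, prediluted in DMSO then 50-fold into CAFTY buffer (pH 7.4, 2 mM Ca2+, 0.01% BSA), tested alongside TOP cells on a Geneticin-selected HEK293 FOP line whose TCF elements are replaced by a random sequence; recombinant human Wnt-3a applied at 2500-5 ng/ml.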

[2] = target: T1, TNKS1 (Homo sapiens, UniProt O95271); experiment: TNKS1 Assay B (auto-parsylation, [3H]-NAD+ SPA); format: biochemical; settings: 6 nM TNKS1, auto-parsylation, over night at room temperature
T1 construct: purchased BPS Bioscience, San Diego, USA 80579 (TNKS1 Histone Ribosylation Assay Kit)
T1 sequence (O95271 1-1327): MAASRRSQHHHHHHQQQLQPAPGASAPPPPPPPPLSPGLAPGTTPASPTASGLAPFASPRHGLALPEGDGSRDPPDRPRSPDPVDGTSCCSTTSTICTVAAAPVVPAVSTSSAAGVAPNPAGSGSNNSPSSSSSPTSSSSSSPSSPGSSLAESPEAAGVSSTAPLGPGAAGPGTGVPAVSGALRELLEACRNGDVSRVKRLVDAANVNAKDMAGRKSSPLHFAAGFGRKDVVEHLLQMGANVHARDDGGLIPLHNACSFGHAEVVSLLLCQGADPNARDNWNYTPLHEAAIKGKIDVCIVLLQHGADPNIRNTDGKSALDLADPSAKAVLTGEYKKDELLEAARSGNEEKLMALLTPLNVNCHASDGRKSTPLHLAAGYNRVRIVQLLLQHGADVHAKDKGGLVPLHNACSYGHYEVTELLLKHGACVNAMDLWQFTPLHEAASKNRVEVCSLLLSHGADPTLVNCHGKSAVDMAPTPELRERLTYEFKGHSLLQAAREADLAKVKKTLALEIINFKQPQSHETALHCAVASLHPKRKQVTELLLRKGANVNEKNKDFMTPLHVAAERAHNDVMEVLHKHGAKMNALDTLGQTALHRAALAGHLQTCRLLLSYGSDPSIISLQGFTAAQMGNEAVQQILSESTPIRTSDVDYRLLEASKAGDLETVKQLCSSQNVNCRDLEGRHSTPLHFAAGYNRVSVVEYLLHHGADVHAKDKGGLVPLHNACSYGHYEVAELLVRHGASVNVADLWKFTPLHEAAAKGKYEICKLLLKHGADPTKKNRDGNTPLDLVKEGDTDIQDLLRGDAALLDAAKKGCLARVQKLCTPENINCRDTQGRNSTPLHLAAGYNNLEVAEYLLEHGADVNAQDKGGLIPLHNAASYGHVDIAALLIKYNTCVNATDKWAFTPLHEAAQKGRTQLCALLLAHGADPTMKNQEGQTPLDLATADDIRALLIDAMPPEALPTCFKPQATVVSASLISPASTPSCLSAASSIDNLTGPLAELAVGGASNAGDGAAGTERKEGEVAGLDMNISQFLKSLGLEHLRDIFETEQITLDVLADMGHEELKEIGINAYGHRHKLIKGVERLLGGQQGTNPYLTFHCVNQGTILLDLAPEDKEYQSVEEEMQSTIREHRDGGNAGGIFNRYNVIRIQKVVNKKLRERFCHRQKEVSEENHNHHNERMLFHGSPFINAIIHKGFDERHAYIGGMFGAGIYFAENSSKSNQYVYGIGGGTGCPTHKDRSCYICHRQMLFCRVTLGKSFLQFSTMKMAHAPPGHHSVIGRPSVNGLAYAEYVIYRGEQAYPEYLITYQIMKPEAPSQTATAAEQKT

Compound	IC50 [2]	IC50 [1]
O=C(NCCN1CCCCC1)c1nc[nH]c1C(=O)N[C@H]1CC[C@H](C(=O)Nc2ccc(F)cc2Cl)CC1 [Example 2, N^5-{trans-4-[(2-chloro-4-fluorophenyl)carbamoyl]cyclohexyl}-N^4-[2-(piperidin-1-yl)ethyl]-1H-imidazole-4,5-dicarboxamide]	550 nM	≥ 50000 nM
Cc1c(C(C)N(C)C)cnc2c(C(=O)N[C@H]3CC[C@H](C(=O)Nc4ccc(F)cc4Cl)CC3)cnn12 (mixture of isomers) [Example 55, N-{trans-4-[(2-chloro-4-fluorophenyl)carbamoyl]cyclohexyl}-6-[1-(dimethylamino)ethyl]-7-methylpyrazolo[1,5-a]pyrimidine-3-carboxamide formic acid salt]	740 nM	≥ 50000 nM
CNC(C)c1cnc2c(C(=O)N[C@H]3CC[C@H](C(=O)Nc4ccc(F)cc4Cl)CC3)cnn2c1C (stereo partly drawn) [Example 54, N-{trans-4-[(2-chloro-4-fluorophenyl)carbamoyl]cyclohexyl}-7-methyl-6-[1-(methylamino)ethyl]pyrazolo[1,5-a]pyrimidine-3-carboxamide formic acid salt]	460 nM	≥ 50000 nM

More lines, main results first:

IC50 [2]	Compound	IC50 [1]
2800 nM	COCC(C)NC(=O)c1nc[nH]c1C(=O)N[C@H]1CC[C@H](C(=O)Nc2cc(N3CCOCC3)ccc2Cl)CC1 (stereo partly drawn) [Example 91, N^5-(trans-4-{[2-chloro-5-(morpholin-4-yl)phenyl]carbamoyl}cyclohexyl)-N^4-(1-methoxypropan-2-yl)-1H-imidazole-4,5-dicarboxamide]	≥ 50000 nM
380 nM	CNC(=O)c1[nH]cnc1C(=O)NC1CCC(C(=O)Nc2ccc(F)cc2Cl)CC1C (racemic) [Example 39, N^4-{4-[(2-chloro-4-fluorophenyl)carbamoyl]-2-methylcyclohexyl}-N^5-methyl-1H-imidazole-4,5-dicarboxamide]	–
